Test [1] relates to rat retinal excitotoxicity model. The settings on record: cited from earlier work.
In test [2] the test system is native NMDA receptors. As to conditions: cited from earlier work.
Test [3] concerns native NMDA receptors. The settings on record: cited from earlier work. The source holds these as a separate data set.
Test [4] concerns the target native NMDA receptors. In words: Analysis of voltage dependence of NMDA receptor block (Woodhull model with voltage-independent component, Equation (2)). The test is classed as cell-based, rat. The procedure:
NMDA receptors were activated with 100 µM NMDA plus 10 µM glycine unless otherwise stated. The percentages of blocking of the steady-state or peak currents by different drug concentrations were measured at −80, −30 or +30 mV holding voltages. Kinetics of transient processes of more than 20 ms duration were approximated with single or double exponential functions. In case of double exponential fitting, the weighted time constant was used.
The voltage dependence of compounds’ action was analyzed with the classical Woodhull model with the addition of a voltage-independent component. […] Kb is the affinity of a drug for the channel, and δ is the electrical depth of the binding site. The δ value reflects the fraction of membrane electric field that the charged blocking molecule crosses on its pathway between the external media and the binding site in the channel.
Thus, we deduced Equation (2), taking it into account and assuming that the binding to the deep and shallow site is independent:(2) B=100−100/(1+C/(Kvd∗exp〖Fzδ/RTV〗)+C/Kvi+(C∗C)/((Kvd∗exp〖Fzδ/RTV〗∗Kvi))
In this equation, Kvd is the affinity of the drug to the deep site, Kvi—the affinity of the drug to the shallow site, and other parameters are the same as in Equation (1).
All experimental data are presented as the mean ± SD estimated from at least four experiments (cells). Significance of the effects was tested with t-tests. Differences were considered significant at p < 0.05. Concentration dependencies were approximated with Hill equation. Voltage dependencies were approximated with Equation (2). […] Approximation error values were taken as the precision measures.

The test system of test [5] is native NMDA receptors. In words: Whole-cell patch clamp of NMDA plus glycine induced currents in isolated CA1 pyramidal neurons. Type of test: cell-based, rat. As to conditions: for change of inhibition with increase of NMDA concentration / inhibition at 1 mM NMDA: −30 mV. The procedure: The rats were anesthetised with sevoflurane and then decapitated. The brains were brought out quickly and cooled to 2–4 °C. […] All experiments were performed at room temperature.
Vibrodissociation method was used to free CA1 pyramidal neurons from slices. This method allows for isolating cells without enzymatic treatment and keeping them in more native state. Pyramidal cells were isolated from the stratum pyramidale and distinguished from non-pyramidal cells on the basis of pyramidal-like somata and preserved apical dendrites.
To record membrane currents in response to applications of NMDA and glycine, the whole-cell configuration of patch clamp technique was used. Series resistance (<20 MΩ) was compensated by 70–80% and monitored during experiments. Only cells with stable holding currents were used in further analysis. The current signals were amplified using EPC-8 (HEKA Electronics, Lambrecht, Germany), filtered at 5 kHz, sampled, and stored on a personal computer. RSC-200 (BioLogic Science Instruments, Claix, France) perfusion system was used to apply the drugs under computer control. […] The pipettes with resistance of 2–5 MΩ were filled with the following solution (in mM): CsF 100, CsCl 40, NaCl 5, CaCl2 0.5, EGTA 5, HEPES 10 (pH adjusted to 7.2 with CsOH). […] Other reagents were purchased from MedChemExpress (Monmouth Junction, NJ, USA), Sigma (St. Louis, MO, USA), or Tocris Bioscience (Bristol, UK).
NMDA receptors were activated with 100 µM NMDA plus 10 µM glycine unless otherwise stated. […] Kinetics of transient processes of more than 20 ms duration were approximated with single or double exponential functions. In case of double exponential fitting, the weighted time constant was used.

Where [6] appears, read: −80 mV holding voltage, native NMDA receptors, earlier papers of the authors, read-out: IC50, −80 mV.
The mark [7] stands for this setting: Equation (2) fit, zδ free, reanalysis of the authors' earlier voltage dependence data [16],[17], read-out: Kvd.
[8] abbreviates: Equation (2) fit, zδ free, reanalysis of the authors' earlier voltage dependence data [16],[17], read-out: Kvi.
The mark [9] stands for this setting: Equation (2) with fixed zδ (0.55 mono-, 1.1 dicationic), reanalysis of earlier data [16],[17], read-out: Kvd, fixed zδ (converted).
Setting [10] is: Equation (2) with fixed zδ (0.55 mono-, 1.1 dicationic), reanalysis of earlier data [16],[17], read-out: Kvi, fixed zδ (converted).
Where [11] appears, read: fit with consensus zδ, read-out: binding constant for the deep site (Kvd).

Entries after “also recorded” stand apart in the source; their conditions may differ. Where two headings read alike, the source gives them in different places.

We go through nine molecules from publication PMC10649274 (International Journal of Molecular Sciences, 2023).

In general, IC50 refers to the point on the concentration scale where inhibition reaches its midpoint.

Consider `CCOC(=O)c1ccc(OC(=O)CCCCCNC(=N)N)cc1` [Gabexate], for which the retinal protection entry in test [1] is “did not demonstrate retinal protection activities”. Moreover, the “voltage dependence of NMDA receptor inhibition” value in the test with native NMDA receptors [2] is listed as “Completely voltage-independent”. In addition, the “inhibition of native NMDA receptors” value with native NMDA receptors [3] is “inhibited native NMDA receptors”. For the same molecule, the “nature of voltage-independent inhibition” value with native NMDA receptors [3] was “agonist-dependent but non-competitive; also recorded: mostly voltage-independent and not competitive”. Besides, in the test on native NMDA receptors [3], the “type of channel block (interaction with channel gate)” value (from here on “type of channel block”) is on record as “did not demonstrate any signs of a “foot-in-the-door” or trapping channel block”. Also, the IC50 on native NMDA receptors [3] (setting [6]) was 16 ± 3 µM. Besides, the Kd is approximately 300 µM on native NMDA receptors [4] (setting [7]), 29 ± 8 µM on native NMDA receptors [4] (setting [8]), 800 µM at native NMDA receptors [4] (setting [9]) and 25 µM at native NMDA receptors [4] (setting [10]).
As to `CC(C(O)c1ccc(O)cc1)N1CCC(Cc2ccccc2)CC1` (centres unmarked) [Ifenprodil, ifenprodil], the “share of high-affinity component in inhibition of NMDA receptor currents” value with native NMDA receptors [3] (CA1 pyramidal cells, biphasic concentration dependence) was “approximately 60%”.
Turning to `N=C(N)c1ccc(-c2ccc(-c3ccc(C(=N)N)cc3)o2)cc1` [Furamidine], in the test on native NMDA receptors [2], the “voltage dependence of NMDA receptor inhibition” value was “strongly voltage-dependent”. Also, the “type of channel block” value in the test on native NMDA receptors [3] was “foot-in-the-door”. In addition, the IC50 at native NMDA receptors [3] (setting [6]) is 0.64 ± 0.13 µM. In addition, in the test with native NMDA receptors [5] (holding voltage not stated), the “change of inhibition with increase of NMDA concentration from 30 to 1000 µM” value (“change of inhibition with increase … to 1000 µM” below) is listed as “not attenuated significantly”. The Kd on native NMDA receptors [4] (setting [7]) is 20 ± 5 µM; at native NMDA receptors [4] (setting [8]) it was 3.4 ± 0.4 µM; at native NMDA receptors [4] (setting [9]), 21.8 µM; on native NMDA receptors [4] (setting [10]) it was 3.3 µM.
Turning to `NC(CCCP(=O)(O)O)C(=O)O` [D-AP5], the “inhibition at high NMDA concentrations” value in the test with native NMDA receptors [5] (5 µM, high NMDA concentrations) is “became weak, decaying to zero”.
As to `CN(C)C(=O)COC(=O)Cc1ccc(OC(=O)c2ccc(NC(=N)N)cc2)cc1` [Camostat], in test [1], the retinal protection result is reported as “did not demonstrate retinal protection activities”. Further, the “inhibition of native NMDA receptors” value in the test with native NMDA receptors [3] is given as “low activity; also recorded: practically ineffective”. Further, at native NMDA receptors [3] (setting [6]), the IC50 was more than 100 µM.
In the case of `CC12CC3CC(C)(C1)CC(N)(C3)C2` [Memantine], the 50% inhibitory concentration (IC50) at native NMDA receptors [3] (−30 mV, 1 mM Mg2+, read-out: IC50 in the presence of magnesium) was 6.4 ± 0.5 µM.
Regarding `N=C(N)c1ccc(OCCCCCOc2ccc(C(=N)N)cc2)cc1` [Pentamidine], in the test with native NMDA receptors [2], the “voltage dependence of NMDA receptor inhibition” value was “strongly voltage-dependent”. Further, on native NMDA receptors [3], the “IC50 (NMDA receptor antagonism)” value is given as “submicromolar range”. Further, in the test with native NMDA receptors [3], the “type of channel block” value is on record as “partial trapping”. For the same molecule, the IC50 at native NMDA receptors [3] (setting [6]) is 0.41 ± 0.08 µM. The “change of inhibition with increase … to 1000 µM” value with native NMDA receptors [5] (holding voltage not stated) is on record as “not attenuated significantly”. The Kd on native NMDA receptors [4] (setting [7]) is 60 ± 25 µM; on native NMDA receptors [4] (setting [8]), 8 ± 1 µM; at native NMDA receptors [4] (setting [9]), 27 µM; on native NMDA receptors [4] (setting [10]), 10 µM.
With `N=C(N)c1ccc(/N=N/Nc2ccc(C(=N)N)cc2)cc1` [Diminazene], the “voltage dependence of NMDA receptor inhibition” value in the test with native NMDA receptors [2] is on record as “complex voltage dependence”. For the same molecule, the “type of channel block” value with native NMDA receptors [3] is “foot-in-the-door”. Also, the IC50 on native NMDA receptors [3] (setting [6]) was 13 ± 3 µM. The “change of inhibition with increase of NMDA concentration” value in the test on native NMDA receptors [5] is on record as “significant attenuation”. Besides, the “inhibition at 1 mM NMDA” value with native NMDA receptors [5] is given as “remained significant”. In the test with native NMDA receptors [5] (−80 mV), the “change of inhibition with increase … to 1000 µM” value was “did not differ significantly”. The Kd is approximately 600 µM at native NMDA receptors [4] (setting [7]); 14 ± 2 µM at native NMDA receptors [4] (setting [8]); 1500 µM at native NMDA receptors [4] (setting [9]); 14 ± 2 µM on native NMDA receptors [4] (setting [10]); more than 1000 µM at native NMDA receptors [4] (setting [11]).
With `N=C(N)c1ccc(-c2cc3ccc(C(=N)N)cc3[nH]2)cc1` [DAPI], the “voltage dependence of NMDA receptor inhibition” value in the test with native NMDA receptors [2] was “Completely voltage-independent”. For the same molecule, the “type of channel block” value in the test with native NMDA receptors [3] is recorded as “foot-in-the-door”. For the same molecule, at native NMDA receptors [3] (setting [6]), the IC50 is 3.1 ± 0.6 µM. Moreover, the “change of inhibition with increase of NMDA concentration” value in the test on native NMDA receptors [5] was “agonist-dependent”. In the test with native NMDA receptors [5], the “inhibition at 1 mM NMDA” value is listed as “remained significant”. Also, the “change of inhibition with increase … to 1000 µM” value in the test on native NMDA receptors [5] (−80 mV) is listed as “agonist-dependent”. In addition, the figures for the Kd at native NMDA receptors [4] (setting [9]), on native NMDA receptors [4] (setting [10]) and on native NMDA receptors [4] (setting [11]) were 5000 µM, 3.16 µM and more than 1000 µM, respectively.
